According to patent US5525604A, “4-aminopyrimidine derivatives” (Ono Pharmaceutical Co., Ltd., priority 1994, dated 1996):
Structures can show the parent of a compound that is named as a salt.

What was measured:
[1] = molecular target: cGMP-PDE (Homo sapiens, UniProt O76074); experiment: Inhibitory effect on cGMP-PDE (PDE IC isolated from human platelets, 3H-cGMP substrate); type: biochemical; details: 0.2 μM 3H-cGMP, pH 8.0, 2.5% DMSO
[2] = molecular target: T1, TXA2 synthetase (Rattus norvegicus, UniProt P49430); experiment: Inhibitory effect on TXA2 synthetase (TXB2 by EIA in A23187-stimulated rat whole blood); type: cell-based, rat (Male Wistar rats); details: rat heparinized whole blood, Ca ionophore A23187, TXB2 by EIA, 37° C.
T1 construct: whole blood was collected from abdominal aorta; from tissue; host or cells: heparinized whole blood of male Wistar rats (mainly platelets)
T1 sequence (P49430 1-533): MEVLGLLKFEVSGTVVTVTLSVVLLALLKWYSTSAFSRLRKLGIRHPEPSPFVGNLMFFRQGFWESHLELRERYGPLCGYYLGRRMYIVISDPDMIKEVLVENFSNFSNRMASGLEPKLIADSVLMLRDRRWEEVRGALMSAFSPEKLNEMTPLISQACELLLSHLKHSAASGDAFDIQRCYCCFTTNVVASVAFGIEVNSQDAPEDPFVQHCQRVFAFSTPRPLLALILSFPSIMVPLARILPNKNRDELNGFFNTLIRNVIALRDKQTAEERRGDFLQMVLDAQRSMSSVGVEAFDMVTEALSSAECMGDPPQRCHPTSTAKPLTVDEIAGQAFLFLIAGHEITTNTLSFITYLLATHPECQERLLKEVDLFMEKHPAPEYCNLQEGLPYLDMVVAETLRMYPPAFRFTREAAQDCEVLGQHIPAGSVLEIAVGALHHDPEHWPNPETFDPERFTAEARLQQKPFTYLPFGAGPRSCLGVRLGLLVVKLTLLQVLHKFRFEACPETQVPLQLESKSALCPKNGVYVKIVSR
Method: (2) Inhibitory effect on TXA2 synthetase
Male Wistar rats were starved overnight. 500 μL of heparinized (10 U/mL) whole blood was collected from abdominal aorta using polyethylene syringe (needle: 22 or 26 G). The blood freshly drawn from animal was preincubated with 5 μL Of test compound (concentration 10 μM) at 37° C. Five minutes later, 2.5 μL of 6 mM of Ca ionophore A23187 (final concentration of […]) was added into tube, and incubation mixture was further incubated for 15 min. The reaction was terminated by centrifugation of tubes at 12,000 rpm for 2 min. TXB2 content in the supernatant was determined by EIA as follows.
1 mL of 0.5M glycine-HCl buffer (pH 3.2) was added to 100 μL of sample. The samples were mixed well and centrifuged at 1,700 G for 10 min. at 4° C. The extracted supernatant was applied to a SEP-PAK (registered Trade Mark) C18 cartridge (Waters Assoc.). After washing with 10 mL of distilled water followed by 10 mL each of 15% ethanol and petroleum ether, the sample was eluted with 3 mL of ethyl acetate. The ethyl acetate fraction was evaporated to dryness under gentle N2 stream and the residue was dissolved in EIA buffer (final volume of 1 mL) following the addition of […] of 0.01M NaHCO3-NaOH buffer (pH 10.0). EIA for TXB2 was carried out according to a legend attached to the kit (Chyman Chemical Co., inc.) and calculated inhibition percent. Overall recovery of TXB2 in this extraction procedure was 90%..

Row | SMILES | IC50 [1] [µM] | inhibition at 10 µM [2] [%]
1 | OCCOCCNc1nc(-n2ccnc2)ncc1-c1cccs1 [1(q), 2-(1-Imidazolyl)-5-(2-thienyl)-4-[2-(2-hydroxyethoxy)ethyl]aminopyrimidine hydrochloride] | 12.5 | 100
2 | c1ccc(CNc2nc(-n3ccnc3)ncc2Cn2ccnc2)cc1 [1(l), 2-(1-Imidazolyl)-5-(1-imidazolyl)methyl-4-phenylmethylaminopyrimidine] | 35 | 63
3 | COc1ccc(Cc2cnc(-n3ccnc3)nc2NCc2ccccc2)cc1 [1(j), 2-(1-Imidazolyl)-5-(4-methoxyphenyl)methyl-4-phenylmethylaminopyrimidine] | 0.78 | 94
4 | Cc1cnc(-n2ccnc2)nc1NCc1ccccc1 [1(e), 2-(1-Imidazolyl)-5-methyl-4-phenylmethylaminopyrimidine] | 18 | 
5 | Clc1ccc(CNc2nc(-n3ccnc3)ncc2-c2cccs2)cc1 [1(z), 2-(1-Imidazolyl)-5-(2-thienyl)-4-(4-chlorophenyl)methylaminopyrimidine hydrochloride] | 0.061 | 
6 | COc1cccc(CNc2nc(-n3ccnc3)ncc2-c2cccs2)c1 [1(t), 2-(1-Imidazolyl)-5-(2-thienyl)-4-(3-methoxyphenyl)methylaminopyrimidine hydrochloride] | 0.23 | 100
7 | c1ccc(CNc2nc(-n3ccnc3)ncc2Cc2ccccc2)cc1 [1(d), 2-(1-Imidazolyl)-5-phenylmethyl-4-phenylmethylaminopyrimidine] | 1 | 
8 | c1csc(-c2cnc(-n3ccnc3)nc2NCc2ccc3c(c2)OCO3)c1 [1(p), 2-(1-Imidazolyl)-5-(2-thienyl)-4-(1,3-dioxaindan-5-yl)methylaminopyrimidine hydrochloride] | 0.025 | 90
9 | c1csc(CNc2nc(-n3ccnc3)ncc2-c2cccs2)c1 [1(v), 2-(1-Imidazolyl)-5-(2-thienyl)-4-(2-thienyl)methylaminopyrimidine hydrochloride] | 0.31 | 100
10 | c1ccc(CNc2nc(-n3ccnc3)ncc2-c2cccs2)cc1 [1(n), 2-(1-Imidazolyl)-5-(2-thienyl)-4-phenylmethylaminopyrimidine hydrochloride] |  | 90
11 | c1ccc(CNc2ccnc(-n3ccnc3)n2)cc1 [1(a), 2-(1-Imidazolyl)-4-phenylmethylaminopyrimidine] | 38 | 
12 | CCc1cnc(-n2ccnc2)nc1NCc1ccccc1 [1(c), 2-(1-Imidazolyl)-5-ethyl-4-phenylmethylaminopyrimidine] | 2.5 | 
13 | COc1cccc(Cc2cnc(-n3ccnc3)nc2NCCOCCO)c1 [Example 1, 2-(1-Imidazolyl)-4-[2-(2-hydroxyethoxy)ethyl]amino-5-(3-methoxyphenyl)methylpyrimidine] | 21 | 
14 | c1ccc(CONc2nc(-n3ccnc3)ncc2-c2cccs2)cc1 [1(y), 2-(1-Imidazolyl)-5-(2-thienyl)-4-phenylmethoxyaminopyrimidine hydrochloride] | 2.7 | 89
15 | C=C(Cl)c1cnc(-n2ccnc2)nc1NCc1ccccc1 [1(m), 2-(1-Imidazolyl)-5-(1-chlorovinyl)-4-phenylmethylaminopyrimidine hydrochloride] | 1.25 | 
16 | COCCNc1nc(-n2ccnc2)ncc1Cc1cccc(OC)c1 [1(g), 2-(1-Imidazolyl)-5-(3-methoxyphenyl)methyl-4-(2-methoxyethyl)aminopyrimidine] | 3.8 | 
17 | c1csc(-c2cnc(-n3ccnc3)nc2NCc2cccc3ccccc23)c1 [1(r), 2-(1-Imidazolyl)-5-(2-thienyl)-4-(1-naphthyl)methylaminopyrimidine] | 0.35 | 
18 | c1ccc(CNc2nc(-n3ccnc3)ncc2-c2nccs2)cc1 [1(o), 2-(1-Imidazolyl)-5-(2-thiazolyl)-4-phenylmethylaminopyrimidine hydrochloride] | 0.12 | 65
19 | c1cncc(-c2ncc(-c3cccs3)c(NCc3ccc4c(c3)OCO4)n2)c1 [Example 2, 2-(3-Pyridyl)-5-(2-thienyl)-4-(1,3-dioxaindan-5-yl)methylaminopyrimidine hydrochloride] |  | 75
20 | Cc1nc(-n2ccnc2)nc(NCc2ccccc2)c1C [1(f), 2-(1-Imidazolyl)-5,6-dimethyl-4-phenylmethylaminopyrimidine] | 3.65 | 
21 | c1ccc(-c2cnc(-n3ccnc3)nc2NCc2ccc3c(c2)OCO3)cc1 [1(bb)] | 0.014 | 90
22 | COc1ccc(Cc2cnc(-n3ccnc3)nc2NCCOCCO)cc1 [1(h), 2-(1-Imidazolyl)-5-(4-methoxyphenyl)methyl-4-[2-(2-hydroxyethoxy)ethyl]aminopyrimidine] | 0.7 | 99
23 | c1coc(CNc2nc(-n3ccnc3)ncc2-c2cccs2)c1 [1(u), 2-(1-Imidazolyl)-5-(2-thienyl)-4-(2-furyl)methylaminopyrimidine hydrochloride] | 1 | 96
24 | c1cncc(CNc2nc(-n3ccnc3)ncc2-c2cccs2)c1 [1(w), 2-(1-Imidazolyl)-5-(2-thienyl)-4-(3-pyridyl)methylaminopyrimidine dihydrochloride] | 2 | 83
25 | COCCNc1nc(-n2ccnc2)ncc1-c1cccs1 [1(x), 2-(1-Imidazolyl)-5-(2-thienyl)-4-(2-methoxyethyl)aminopyrimidine hydrochloride] | 6 | 87
26 | c1ccc(CNc2nc(-n3ccnc3)ncc2COc2ccccc2)cc1 [1(k), 2-(1-Imidazolyl)-5-phenoxymethyl-4-phenylmethylaminopyrimidine dihydrochloride] | 0.76 | 
27 | COCCNc1nc(-n2ccnc2)ncc1Cc1ccc(OC)cc1 [1(i), 2-(1-Imidazolyl)-5-(4-methoxyphenyl)methyl-4-(2-methoxyethyl)aminopyrimidine] | 3.5 | 
